Assay results from patent publication US8735414B2 (priority 2009, dated 2014).

Experiments:
[1] = test system: bicistronic HCV replicon (replicon RNA, GenBank Accession No. AJ242654); test: HCV Replicon Assay; type: cell-based; conditions: Hepatitis C virus, 72 h, read-out: Replicon IC50

| SMILES | IC50 [1] | melting point |
| --- | --- | --- |
| Cc1ccc2c(C#N)c(-c3ncc(S(=O)(=O)N[C@@H](C)C(F)(F)F)cn3)n(C3CCCC3)c2c1 [compound 404, 2-(3-cyano-1-cyclopentyl-6-methyl-1H-indol-2-yl)-N-[(2S)-1,1,1-trifluoropropan-2-yl]pyrimidine-5-sulfonamide] | < 500 nM | 223 to 224 °C |
| N#Cc1c(-c2ncc(S(=O)(=O)NC(CF)CF)cn2)n(C2CCC2)c2cc(OC(F)F)ccc12 [compound 129, 2-[3-cyano-1-cyclobutyl-6-(difluoromethoxy)-1H-indol-2-yl]-N-(1,3-difluoropropan-2-yl)pyrimidine-5-sulfonamide] | < 500 nM | 205 to 207 °C |
| CC(C)n1c(-c2ccc(S(=O)(=O)N[C@@H](C)C(F)(F)F)cn2)c(C#N)c2c(F)cc(OC(F)F)cc21 [compound 784, 6-[3-cyano-6-(difluoromethoxy)-4-fluoro-1-(propan-2-yl)-1H-indol-2-yl]-N-[(2S)-1,1,1-trifluoropropan-2-yl]pyridine-3-sulfonamide] | < 500 nM | 193 to 194 °C |
| Cc1cc2c(cc1Cl)c(C#N)c(-c1ncc(S(=O)(=O)N[C@@H](C)C(F)(F)F)cn1)n2C1CCC1 [compound 448, 2-(5-chloro-3-cyano-1-cyclobutyl-6-methyl-1H-indol-2-yl)-N-[(2S)-1,1,1-trifluoropropan-2-yl]pyrimidine-5-sulfonamide] | 500 to 2000 nM | > 300 °C |
| CCc1cc2c(cc1F)c(C(N)=O)c(-c1ccc(S(=O)(=O)N[C@@H](C)C(F)(F)F)cn1)n2-c1cccnn1 [compound 1046, 6-ethyl-5-fluoro-1-(pyridazin-3-yl)-2-(5-{[(2S)-1,1,1-trifluoropropan-2-yl]sulfamoyl}pyridin-2-yl)-1H-indole-3-carboxamide] | 2000 to 5000 nM | 206 to 212 °C |
| C[C@H](NS(=O)(=O)c1cnc(-c2c(C#N)c3ccc(CC(F)F)cc3n2CC2CC2)nc1)C1CC1 [compound 619, 2-[3-cyano-1-(cyclopropylmethyl)-6-(2,2-difluoroethyl)-1H-indol-2-yl]-N-[(1S)-1-cyclopropylethyl]pyrimidine-5-sulfonamide] | < 500 nM | 144 to 150 °C |
| Cc1cc2c(cc1F)c(C(=O)O)c(-c1ccc(S(=O)(=O)N[C@@H](C)C(F)(F)F)cn1)n2C1CCC1 [compound 793, 1-cyclobutyl-5-fluoro-6-methyl-2-(5-{[(2S)-1,1,1-trifluoropropan-2-yl]sulfamoyl}pyridin-2-yl)-1H-indole-3-carboxylic acid] | < 500 nM | 234 to 240 °C |
| Cc1ccc2c(C#N)c(-c3ccc(S(=O)(=O)NC4(C(F)(F)F)CC4)cn3)n(C3CCCC3)c2c1 [compound 190, 6-(3-cyano-1-cyclopentyl-6-methyl-1H-indol-2-yl)-N-[1-(trifluoromethyl)cyclopropyl]pyridine-3-sulfonamide] | < 500 nM | 199 to 210 °C |
| Cc1cncc(-n2c(-c3ccc(S(=O)(=O)N[C@@H](C)C(F)(F)F)cn3)c(C#N)c3cc(F)c(C)cc32)n1 [compound 915, 6-[3-cyano-5-fluoro-6-methyl-1-(6-methylpyrazin-2-yl)-1H-indol-2-yl]-N-[(2S)-1,1,1-trifluoropropan-2-yl]pyridine-3-sulfonamide] | < 500 nM | 211 to 215 °C |
| CCc1cc2c(cc1F)c(C(N)=O)c(-c1ccc(S(=O)(=O)NC3(C(F)(F)F)CC3)cn1)n2-c1ncccn1 [compound 979, 6-ethyl-5-fluoro-1-(pyrimidin-2-yl)-2-(5-{[1-(trifluoromethyl)cyclopropyl]sulfamoyl}pyridin-2-yl)-1H-indole-3-carboxamide] | 2000 to 5000 nM | 240 to 247 °C |
| CCc1cc2c(cc1F)c(C#N)c(-c1ccc(S(=O)(=O)N[C@@H](C)C(F)(F)F)cn1)n2-c1ccc(F)cn1 [compound 777, 6-[3-cyano-6-ethyl-5-fluoro-1-(5-fluoropyridin-2-yl)-1H-indol-2-yl]-N-[(2S)-1,1,1-trifluoropropan-2-yl]pyridine-3-sulfonamide] | < 500 nM | 210 to 212 °C |
| Cc1ccc2c(C#N)c(-c3ncc(S(=O)(=O)NC(C)C)cn3)n(CC3CC3)c2c1 [compound 168, 2-[3-cyano-1-(cyclopropylmethyl)-6-methyl-1H-indol-2-yl]-N-(propan-2-yl)pyrimidine-5-sulfonamide] | < 500 nM | 245 to 247 °C |
| CC(C)NS(=O)(=O)c1cnc(-c2c(C(N)=O)c3ccc(Cl)cc3n2C2CCC2)nc1 [compound 780, 6-chloro-1-cyclobutyl-2-[5-(propan-2-ylsulfamoyl)pyrimidin-2-yl]-1H-indole-3-carboxamide] | < 500 nM | 251 to 253 °C |
| C[C@H](NS(=O)(=O)c1ccc(-c2c(C#N)c3ccc(OC(F)F)cc3n2C2CCCC2)nc1)C1CC1 [compound 174, 6-[3-cyano-1-cyclopentyl-6-(difluoromethoxy)-1H-indol-2-yl]-N-[(1S)-1-cyclopropylethyl]pyridine-3-sulfonamide] | < 500 nM | 176 to 182 °C |
| Cc1ccc2c(c1)c(C#N)c(-c1ncc(S(=O)(=O)N[C@@H](C)C3CC3)cn1)n2C(C)C [compound 563, 2-[3-cyano-5-methyl-1-(propan-2-yl)-1H-indol-2-yl]-N-[(1S)-1-cyclopropylethyl]pyrimidine-5-sulfonamide] | 500 to 2000 nM | 171 to 174 °C |
| N#Cc1c(-c2ccc(S(=O)(=O)NC(CF)CF)cn2)n(C2CC2)c2cc(C3CC3)ccc12 [compound 147, 6-(3-cyano-1,6-dicyclopropyl-1H-indol-2-yl)-N-(1,3-difluoropropan-2-yl)pyridine-3-sulfonamide] | < 500 nM | 226 to 228 °C |
| N#Cc1c(-c2ccc(S(=O)(=O)NC(CF)CF)cn2)n(C2CCCC2)c2cc(OC(F)F)c(F)cc12 [compound 573, 6-[3-cyano-1-cyclopentyl-6-(difluoromethoxy)-5-fluoro-1H-indol-2-yl]-N-(1,3-difluoropropan-2-yl)pyridine-3-sulfonamide] | < 500 nM | 190 to 194 °C |
| CC(C)NS(=O)(=O)c1cnc(-c2c(C#N)c3ccc(OC(F)F)cc3n2C2CCC2)nc1 [compound 127, 2-[3-cyano-1-cyclobutyl-6-(difluoromethoxy)-1H-indol-2-yl]-N-(propan-2-yl)pyrimidine-5-sulfonamide] | < 500 nM | 192 to 194 °C |
| Cc1ccc2c(C#N)c(-c3ncc(S(=O)(=O)NC(CF)CF)cn3)n(C3CCC3)c2c1 [compound 132, 2-(3-cyano-1-cyclobutyl-6-methyl-1H-indol-2-yl)-N-(1,3-difluoropropan-2-yl)pyrimidine-5-sulfonamide] | < 500 nM | 236 to 238 °C |
| C[C@H](NS(=O)(=O)c1ccc(-c2c(C#N)c3ccc(C(F)(F)F)cc3n2-c2ccccn2)nc1)C(F)(F)F [compound 952, 6-[3-cyano-1-(pyridin-2-yl)-6-(trifluoromethyl)-1H-indol-2-yl]-N-[(2S)-1,1,1-trifluoropropan-2-yl]pyridine-3-sulfonamide] | < 500 nM | 173 to 176 °C |
| CCc1cc2c(cc1F)c(C#N)c(-c1ccc(S(=O)(=O)N[C@@H](C)C(F)(F)F)cn1)n2C1CCCC1 [compound 633, 6-(3-cyano-1-cyclopentyl-6-ethyl-5-fluoro-1H-indol-2-yl)-N-[(2S)-1,1,1-trifluoropropan-2-yl]pyridine-3-sulfonamide] | < 500 nM | 201 to 202 °C |
| N#Cc1c(-c2ncc(S(=O)(=O)NC(CF)CF)cn2)n(C2CCC2)c2ccc(Cl)cc12 [compound 175, 2-(5-chloro-3-cyano-1-cyclobutyl-1H-indol-2-yl)-N-(1,3-difluoropropan-2-yl)pyrimidine-5-sulfonamide] | < 500 nM | 210 to 212 °C |
| C[C@H](NS(=O)(=O)c1ccc(-c2c(C#N)c3ccc(OC(F)F)cc3n2C2CCCC2)nc1)C(F)(F)F [compound 589, 6-[3-cyano-1-cyclopentyl-6-(difluoromethoxy)-1H-indol-2-yl]-N-[(2S)-1,1,1-trifluoropropan-2-yl]pyridine-3-sulfonamide] | < 500 nM | 188 to 194 °C |
| Cc1cc2c(cc1F)c(C#N)c(-c1ccc(S(=O)(=O)N[C@@H](C)C(F)(F)F)cn1)n2-c1cncc(F)c1 [compound 945, 6-[3-cyano-5-fluoro-1-(5-fluoropyridin-3-yl)-6-methyl-1H-indol-2-yl]-N-[(2S)-1,1,1-trifluoropropan-2-yl]pyridine-3-sulfonamide] | < 500 nM | 199 to 204 °C |
| Cc1ccc2c(c1)c(C#N)c(-c1ncc(S(=O)(=O)N[C@@H](C)C3CC3)cn1)n2C1CCC1 [compound 545, 2-(3-cyano-1-cyclobutyl-5-methyl-1H-indol-2-yl)-N-[(1S)-1-cyclopropylethyl]pyrimidine-5-sulfonamide] | < 500 nM | 168 to 171 °C |
| COc1cc2c(C#N)c(-c3ccc(S(=O)(=O)N[C@H](C)C(F)(F)F)cn3)n(C3CCCC3)c2cc1C [compound 694, 6-(3-cyano-1-cyclopentyl-5-methoxy-6-methyl-1H-indol-2-yl)-N-[(2R)-1,1,1-trifluoropropan-2-yl]pyridine-3-sulfonamide] | 2000 to 5000 nM | 210.5 to 211 °C |
| Cc1ccc2c(C#N)c(-c3ccc(S(=O)(=O)N[C@@H](C)C(F)(F)F)cn3)n(C3CCCC3)c2c1F [compound 424, 6-(3-cyano-1-cyclopentyl-7-fluoro-6-methyl-1H-indol-2-yl)-N-[(2S)-1,1,1-trifluoropropan-2-yl]pyridine-3-sulfonamide] | < 500 nM | 191 to 195 °C |
| Cc1cc2c(cc1F)c(C#N)c(-c1ccc(S(=O)(=O)N[C@@H](C)C(F)(F)F)cn1)n2-c1ccccn1 [compound 541, 6-[3-cyano-5-fluoro-6-methyl-1-(pyridin-2-yl)-1H-indol-2-yl]-N-[(2S)-1,1,1-trifluoropropan-2-yl]pyridine-3-sulfonamide] | < 500 nM | 160 to 164 °C |
